Where a SMILES comes first, the peptide text is derived from it.
How the values were obtained:
HepG2-2.2.15 cells = experiment: Cytotoxicity in the HBV assay (dye uptake cell viability); assay type: cell-based; details: peptide 10 micrograms per ml
HIV-1 = HIV-1 antiviral assay (CPE reduction, MTS readout) in CEM-SS cells; assay type: cell-based; details: peptide 10 micrograms per ml, strain HIV-1111B, 6 days post-infection
CEM-SS cells = experiment: Cytotoxicity in the HIV-1 assay (MTS cell viability); details: CEM-SS cells, HIV-1 assay; peptide 10 micrograms per ml; MTS
[1] = system: MRC-5 cells (human embryonal lung fibroblasts); details: 6 days
HCMV strain AD169 = experiment: HCMV plaque reduction assay in MRC-5 cells; details: HCMV AD169 in MRC-5 cells; peptide 10 micrograms per ml; 7-10 days
[2] = Cytotoxicity in the HBV assay (dye uptake cell viability); assay type: cell-based; details: human, HepG2-2.2.15 cells (stable line containing HBV ayw genome), peptide 10 micrograms per ml
[3] = system: Methicillin Resistant Staphylococcus Aureus (MRSA); experiment: Methicillin resistant Staphylococcus aureus (MRSA) growth inhibition assay; assay type: cell-based; details: peptide 10 micrograms per ml, visual read, scored positive/negative (complete inhibition of macroscopic growth)
Pseudomonas aeruginosa = Pseudomonas aeruginosa growth inhibition assay; assay type: cell-based; details: peptide 10 micrograms per ml, visual read, scored positive/negative
Streptococcus pneumoniae = Streptococcus pneumoniae growth inhibition assay; assay type: cell-based; details: peptide 10 micrograms per ml, visual read, scored positive/negative
Description: Results from Streptococcus pneumoniae assay:

[4] = Cytotoxicity in the HIV-1 assay (MTS cell viability); details: human, CEM-SS cells (uninfected, cells plus peptide only)
[5] = Cytotoxicity in the HCMV assay (CellTiter 96 cell viability); details: human, MRC-5 cells (embryonal lung fibroblasts)

Nc1ccn([C@@H]2CS[C@H](CO)O2)c(=O)n1 [3TC, Lamivudine]
% Cell viability (HepG2-2.2.15 cells): 95.8%

Cc1cn([C@H]2C[C@H](N=[N+]=[N-])[C@@H](CO)O2)c(=O)[nH]c1=O [AZT]
% CPE reduction in HIV-1 infected CEM-SS cells (HIV-1): 99% | % Cell viability (CEM-SS cells): 97%

Nc1nc(O)c2ncn(COC(CO)CO)c2n1 [Ganciclovir]
% Cell viability [1]: 100% | % plaque reduction (HCMV strain AD169): 100%

N=C(N)NCCC[C@H](NC(=O)CN)C(=O)NCC(=O)N[C@@H](CC(=O)O)C(=O)N[C@@H](CC(N)=O)C(=O)N1CCC[C@H]1C(=O)O [Gly-Arg-Gly-Asp-Asn-Pro, Gly-Arg-Gly-Asp-Asn-Pro-OH] (H-GRGDNP-OH)
viability at 144 h, 10 micrograms per ml [2]: 95.2% | % inhibition [3]: 0.0% | % inhibition (Pseudomonas aeruginosa): 0.0% | % inhibition (Streptococcus pneumoniae): 100.0% | viability at 10 micrograms per ml [4]: 100% | viability at 144 h [5]: 100%

CC(C)(C)NC(=O)[C@@H]1CN(Cc2cccnc2)CCN1C[C@@H](O)C[C@@H](Cc1ccccc1)C(=O)N[C@H]1c2ccccc2C[C@H]1O [Indinavir, indinavir]
% CPE reduction in HIV-1 infected CEM-SS cells (HIV-1): 100%
